# Measured values taken from PubChem BioAssay (NCI).
#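 Following 48 hours of exposure in 96-well plates, responses at five concentrations were used to interpolate endpoints linearly. The concentration for full growth arrest is given as TGI.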
# Assays:
# Experiment in all cases: growth of human tumour cells (NCI), 48 h
# 786-0 renal = tested on: 786-0 renal
# A498 renal = tested on: A498 renal
# A549 NSCLC = tested on: A549 NSCLC
# ACHN renal = tested on: ACHN renal
# BT-549 breast = tested on: BT-549 breast
# CAKI-1 renal = tested on: CAKI-1 renal
# CCRF-CEM leukemia = tested on: CCRF-CEM leukemia
# COLO 205 colon = tested on: COLO 205 colon
# DU-145 prostate = tested on: DU-145 prostate
# EKVX NSCLC = tested on: EKVX NSCLC
# HCC-2998 colon = tested on: HCC-2998 colon
# HCT-116 colon = tested on: HCT-116 colon
# HCT-15 colon = tested on: HCT-15 colon
# HL-60(TB) leukemia = tested on: HL-60(TB) leukemia
# HOP-62 NSCLC = tested on: HOP-62 NSCLC
# HOP-92 NSCLC = tested on: HOP-92 NSCLC
# HS 578T breast = tested on: HS 578T breast
# HT29 colon = tested on: HT29 colon
# IGROV1 ovarian = tested on: IGROV1 ovarian
# K-562 leukemia = tested on: K-562 leukemia
# KM12 colon = tested on: KM12 colon
# LOX IMVI melanoma = tested on: LOX IMVI melanoma
# M14 melanoma = tested on: M14 melanoma
# MALME-3M melanoma = tested on: MALME-3M melanoma
# MCF7 breast = tested on: MCF7 breast
# MDA-MB-231 breast = tested on: MDA-MB-231 breast
# MDA-MB-435 = tested on: MDA-MB-435
# MDA-N = tested on: MDA-N
# MOLT-4 leukemia = tested on: MOLT-4 leukemia
# NCI-H226 lung = tested on: NCI-H226 lung
# NCI-H23 lung = tested on: NCI-H23 lung
# NCI-H460 lung = tested on: NCI-H460 lung
# NCI-H522 lung = tested on: NCI-H522 lung
# NCI/ADR-RES ovarian = tested on: NCI/ADR-RES ovarian
# OVCAR-3 ovarian = tested on: OVCAR-3 ovarian
# OVCAR-4 ovarian = tested on: OVCAR-4 ovarian
# OVCAR-5 ovarian = tested on: OVCAR-5 ovarian
# OVCAR-8 ovarian = tested on: OVCAR-8 ovarian
# PC-3 prostate = tested on: PC-3 prostate
# RPMI-8226 leukemia = tested on: RPMI-8226 leukemia
# RXF 393 renal = tested on: RXF 393 renal
# SF-268 CNS = tested on: SF-268 CNS
# SF-295 CNS = tested on: SF-295 CNS
# SF-539 CNS = tested on: SF-539 CNS
# SK-MEL-2 melanoma = tested on: SK-MEL-2 melanoma
# SK-MEL-28 melanoma = tested on: SK-MEL-28 melanoma
# SK-MEL-5 melanoma = tested on: SK-MEL-5 melanoma
# SK-OV-3 ovarian = tested on: SK-OV-3 ovarian
# SN12C renal = tested on: SN12C renal
# SNB-19 CNS = tested on: SNB-19 CNS
# SNB-75 CNS = tested on: SNB-75 CNS
# SR leukemia = tested on: SR leukemia
# SW-620 colon = tested on: SW-620 colon
# T-47D breast = tested on: T-47D breast
# TK-10 renal = tested on: TK-10 renal
# U251 CNS = tested on: U251 CNS
# UACC-257 melanoma = tested on: UACC-257 melanoma
# UACC-62 melanoma = tested on: UACC-62 melanoma
# UO-31 renal = tested on: UO-31 renal
smiles,measurement,setting,value
Cc1ccc(N=Nc2ccc(O)c(CN(C)C)c2)cc1C,TGI,786-0 renal,> 100 µM
same,TGI,A498 renal,47.4 µM
same,TGI,A549 NSCLC,> 100 µM
same,TGI,ACHN renal,60.1 µM
same,TGI,BT-549 breast,> 100 µM
same,TGI,CAKI-1 renal,> 100 µM
same,TGI,CCRF-CEM leukemia,76.5 µM
same,TGI,COLO 205 colon,25.6 µM
same,TGI,DU-145 prostate,95.8 µM
same,TGI,EKVX NSCLC,61.8 µM
same,TGI,HCC-2998 colon,32.7 µM
same,TGI,HCT-116 colon,> 100 µM
same,TGI,HCT-15 colon,54 µM
same,TGI,HL-60(TB) leukemia,26.1 µM
same,TGI,HOP-62 NSCLC,52.5 µM
same,TGI,HOP-92 NSCLC,> 100 µM
same,TGI,HS 578T breast,56.2 µM
same,TGI,HT29 colon,38.5 µM
same,TGI,IGROV1 ovarian,84.3 µM
same,TGI,K-562 leukemia,43.5 µM
same,TGI,KM12 colon,45.6 µM
same,TGI,LOX IMVI melanoma,76.2 µM
same,TGI,M14 melanoma,81.1 µM
same,TGI,MALME-3M melanoma,34.8 µM
same,TGI,MCF7 breast,> 100 µM
same,TGI,MDA-MB-231 breast,> 100 µM
same,TGI,MDA-MB-435,40.4 µM
same,TGI,MDA-N,> 100 µM
same,TGI,MOLT-4 leukemia,61.5 µM
same,TGI,NCI-H226 lung,> 100 µM
same,TGI,NCI-H23 lung,> 100 µM
same,TGI,NCI-H460 lung,42.6 µM
same,TGI,NCI-H522 lung,28.3 µM
same,TGI,NCI/ADR-RES ovarian,52.6 µM
same,TGI,OVCAR-3 ovarian,> 100 µM
same,TGI,OVCAR-4 ovarian,> 100 µM
same,TGI,OVCAR-5 ovarian,> 100 µM
same,TGI,OVCAR-8 ovarian,> 100 µM
same,TGI,PC-3 prostate,> 100 µM
same,TGI,RPMI-8226 leukemia,90.1 µM
same,TGI,RXF 393 renal,57.8 µM
same,TGI,SF-268 CNS,> 100 µM
same,TGI,SF-295 CNS,> 100 µM
same,TGI,SF-539 CNS,44.1 µM
same,TGI,SK-MEL-2 melanoma,34.7 µM
same,TGI,SK-MEL-28 melanoma,44.7 µM
same,TGI,SK-MEL-5 melanoma,28.4 µM
same,TGI,SK-OV-3 ovarian,> 100 µM
same,TGI,SN12C renal,> 100 µM
same,TGI,SNB-19 CNS,> 100 µM
same,TGI,SNB-75 CNS,> 100 µM
same,TGI,SR leukemia,> 100 µM
same,TGI,SW-620 colon,> 100 µM
same,TGI,T-47D breast,41.9 µM
same,TGI,TK-10 renal,43.3 µM
same,TGI,U251 CNS,> 100 µM
same,TGI,UACC-257 melanoma,58.9 µM
same,TGI,UACC-62 melanoma,34.6 µM
same,TGI,UO-31 renal,53.2 µM
CC(C)=CCNc1ncnc2nc[nH]c12,TGI,786-0 renal,> 100 µM
same,TGI,A498 renal,> 100 µM
same,TGI,A549 NSCLC,> 100 µM
same,TGI,ACHN renal,> 100 µM
same,TGI,BT-549 breast,> 100 µM
same,TGI,CAKI-1 renal,> 100 µM
same,TGI,CCRF-CEM leukemia,> 100 µM
same,TGI,COLO 205 colon,> 100 µM
same,TGI,DU-145 prostate,> 100 µM
same,TGI,EKVX NSCLC,> 100 µM
same,TGI,HCT-116 colon,> 100 µM
same,TGI,HCT-15 colon,> 100 µM
same,TGI,HL-60(TB) leukemia,> 100 µM
same,TGI,HOP-62 NSCLC,> 100 µM
same,TGI,HOP-92 NSCLC,> 100 µM
same,TGI,HS 578T breast,> 100 µM
same,TGI,HT29 colon,> 100 µM
same,TGI,IGROV1 ovarian,> 100 µM
same,TGI,K-562 leukemia,> 100 µM
same,TGI,KM12 colon,> 100 µM
same,TGI,LOX IMVI melanoma,> 100 µM
same,TGI,M14 melanoma,> 100 µM
same,TGI,MALME-3M melanoma,> 100 µM
same,TGI,MCF7 breast,> 100 µM
same,TGI,MDA-MB-231 breast,> 100 µM
same,TGI,MDA-MB-435,> 100 µM
same,TGI,MDA-N,> 100 µM
same,TGI,MOLT-4 leukemia,> 100 µM
same,TGI,NCI-H226 lung,> 100 µM
same,TGI,NCI-H23 lung,> 100 µM
same,TGI,NCI-H460 lung,> 100 µM
same,TGI,NCI-H522 lung,> 100 µM
same,TGI,NCI/ADR-RES ovarian,> 100 µM
same,TGI,OVCAR-3 ovarian,> 100 µM
same,TGI,OVCAR-4 ovarian,> 100 µM
same,TGI,OVCAR-5 ovarian,> 100 µM
same,TGI,OVCAR-8 ovarian,> 100 µM
same,TGI,PC-3 prostate,> 100 µM
same,TGI,RPMI-8226 leukemia,> 100 µM
same,TGI,RXF 393 renal,> 100 µM
same,TGI,SF-268 CNS,> 100 µM
same,TGI,SF-295 CNS,> 100 µM
same,TGI,SF-539 CNS,> 100 µM
same,TGI,SK-MEL-2 melanoma,> 100 µM
same,TGI,SK-MEL-28 melanoma,> 100 µM
same,TGI,SK-MEL-5 melanoma,> 100 µM
same,TGI,SK-OV-3 ovarian,> 100 µM
same,TGI,SN12C renal,> 100 µM
same,TGI,SNB-19 CNS,> 100 µM
same,TGI,SNB-75 CNS,> 100 µM
same,TGI,SR leukemia,> 100 µM
same,TGI,SW-620 colon,> 100 µM
same,TGI,T-47D breast,> 100 µM
same,TGI,TK-10 renal,> 100 µM
same,TGI,U251 CNS,> 100 µM
same,TGI,UACC-257 melanoma,> 100 µM
same,TGI,UACC-62 melanoma,> 100 µM
same,TGI,UO-31 renal,> 100 µM
